US4492693A, “Benzothienylglycyl cephalosporin derivatives” (priority 1983, dated 1985)
≈ marks a conversion by molar mass, not a printed value. Like-named read-outs stand apart in the source and are kept apart here.

Experiments:
Assay type in all cases: cell-based
Staph. epi [1] = test: Agar Dilution MIC (Table I); conditions: read-out: Agar Dilution MIC
Strep. D = test: Agar Dilution MIC (Table I); conditions: read-out: Agar Dilution MIC
Source text: (§1) A typical and preferred compound provided by this invention is 7-(3-benzothienyl)glycylamido-3-methyl-3-cephem-4-carboxylic acid, the compound illustrated in Example 9. The antibacterial activity of this compound has been determined in standard in vitro agar dilution assays against a variety of gram positive and gram negative microorganism. The following Tables present typical minimum inhibitory concentrations (MIC's) in μg/ml for several compounds of the invention when evaluated against the indicated microorganisms. MIC's for several known compounds are also presented for comparison.
Agar Dilution MIC (μg/ml)

H. influ. = test: Agar Dilution MIC (Table I); conditions: read-out: Agar Dilution MIC
Staph. aureus [2] = test: Agar Dilution MIC (Table I); conditions: Staphylococcus aureus, read-out: Agar Dilution MIC
Strep. A = test: Agar Dilution MIC (Table I); conditions: strain C203; read-out: Agar Dilution MIC
E. coli = test: Agar Dilution MIC (Table I); conditions: Escherichia coli
Klebsiella = test: Agar Dilution MIC (Table I); conditions: Klebsiella, read-out: Agar Dilution MIC
Strep. PN = test: Agar Dilution MIC (Table I); conditions: strain PARK
H. influenzae = test: Expanded Spectrum MIC (Table II); conditions: Haemophilus influenzae
Source text: as §1
(§2) Expanded Spectrum MIC (μg/ml)

Staph. aureus [3] = test: Expanded Spectrum MIC (Table II); conditions: Staphylococcus aureus
Source text: as §1, §2

Staph. epi [4] = test: Expanded Spectrum MIC (Table II)
Source text: as §1, §2

Bacteroides corrodens = test: Susceptibility of Anaerobic Bacteroides Isolates by the Agar-Dilution Method (Table III); conditions: Eikenella corrodens; strain 1874; readings 24 hrs. after incubation
Source text: as §1
(§3) Susceptibility of Anaerobic Bacteroides Isolates by the
(§4) Agar-Dilution Method MIC (μg/ml) readings 24 hrs. after incubation

Bacteroides fragilis = test: as above; conditions: 24 h
Source text: as §1, §3, §4

[5] = test system: Bacteroides thetaiotaomicron; test: as above; conditions: 24 h
Source text: as §1, §3, §4

[6] = strain 9, readings 24 hrs. after incubation
[7] = strain 103, readings 24 hrs. after incubation
[8] = strain 104, readings 24 hrs. after incubation
[9] = strain 106, readings 24 hrs. after incubation
[10] = strain 107, readings 24 hrs. after incubation
[11] = strain 108, readings 24 hrs. after incubation
[12] = strain 110, readings 24 hrs. after incubation
[13] = strain 111, readings 24 hrs. after incubation
[14] = strain 1877, readings 24 hrs. after incubation
[15] = strain 1438, readings 24 hrs. after incubation
[16] = strain 1900A, readings 24 hrs. after incubation

CON=C(C(=O)NC1C(=O)N2C(C(=O)O)=C(C)CSC12)c1csc2cc(OC)ccc12 (stereo not drawn) [Ex. 22]
MIC (Staph. epi [1]; strain 222): 4 µg/mL (≈ 8.67 µM)
MIC (Staph. epi [1]; strain EPI1): 8 µg/mL (≈ 17.3 µM)
MIC (Strep. D; strain 2041): 64 µg/mL (≈ 139 µM)
MIC (Strep. D; strain X66): 64 µg/mL (≈ 139 µM)
MIC (H. influ.; strain 76): 2 µg/mL (≈ 4.33 µM)
MIC (H. influ.; strain C.L.): 8 µg/mL (≈ 17.3 µM)
MIC (Staph. aureus [2]; strain V41): 8 µg/mL (≈ 17.3 µM)
MIC (Staph. aureus [2]; strain X1.1): 1 µg/mL (≈ 2.17 µM)
MIC (Staph. aureus [2]; strain X400): 64 µg/mL (≈ 139 µM)
MIC (Strep. A): 0.5 µg/mL (≈ 1.08 µM)
MIC (E. coli; strain EC14): 64 µg/mL (≈ 139 µM)
MIC (E. coli; strain N10): 128 µg/mL (≈ 277 µM)
MIC (E. coli; strain TEM): 128 µg/mL (≈ 277 µM)
MIC (Klebsiella; strain KAE): 128 µg/mL (≈ 277 µM)
MIC (Klebsiella; strain X26): 1 µg/mL (≈ 2.17 µM)
MIC (Klebsiella; strain X68): 128 µg/mL (≈ 277 µM)
MIC (Strep. PN): 0.5 µg/mL (≈ 1.08 µM)
MIC (H. influenzae; strain 76): 1 µg/mL (≈ 2.17 µM)
MIC (H. influenzae; strain 105): 2 µg/mL (≈ 4.33 µM)
MIC (H. influenzae; strain 158): 1 µg/mL (≈ 2.17 µM)
MIC (H. influenzae; strain 164): 1 µg/mL (≈ 2.17 µM)
MIC (H. influenzae; strain 169): 2 µg/mL (≈ 4.33 µM)
MIC (H. influenzae; strain 171): 2 µg/mL (≈ 4.33 µM)
MIC (H. influenzae; strain 312): 1 µg/mL (≈ 2.17 µM)
MIC (H. influenzae; strain 1683): 0.5 µg/mL (≈ 1.08 µM)
MIC (H. influenzae; strain 1930): 1 µg/mL (≈ 2.17 µM)
MIC (H. influenzae; strain 4842): 1 µg/mL (≈ 2.17 µM)
MIC (H. influenzae; strain C.L.): 4 µg/mL (≈ 8.67 µM)
MIC (H. influenzae; strain HESS): 4 µg/mL (≈ 8.67 µM)
MIC (H. influenzae; strain M366): 64 µg/mL (≈ 139 µM)
MIC (H. influenzae; strain M370): 1 µg/mL (≈ 2.17 µM)
MIC (H. influenzae; strain M371): 2 µg/mL (≈ 4.33 µM)
MIC (H. influenzae; strain R465): 2 µg/mL (≈ 4.33 µM)
MIC (H. influenzae; strain STEL): 64 µg/mL (≈ 139 µM)
MIC (Staph. aureus [3]; strain S224): 2 µg/mL (≈ 4.33 µM)
MIC (Staph. aureus [3]; strain S225): 2 µg/mL (≈ 4.33 µM)
MIC (Staph. aureus [3]; strain S226): 2 µg/mL (≈ 4.33 µM)
MIC (Staph. aureus [3]; strain S227): 2 µg/mL (≈ 4.33 µM)
MIC (Staph. aureus [3]; strain S228): 2 µg/mL (≈ 4.33 µM)
MIC (Staph. aureus [3]; strain S229): 4 µg/mL (≈ 8.67 µM)
MIC (Staph. aureus [3]; strain S230): 2 µg/mL (≈ 4.33 µM)
MIC (Staph. aureus [3]; strain S231): 1 µg/mL (≈ 2.17 µM)
MIC (Staph. aureus [3]; strain S234): 2 µg/mL (≈ 4.33 µM)
MIC (Staph. aureus [3]; strain S237): 2 µg/mL (≈ 4.33 µM)
MIC (Staph. aureus [3]; strain S238): 4 µg/mL (≈ 8.67 µM)
MIC (Staph. aureus [3]; strain S239): 2 µg/mL (≈ 4.33 µM)
MIC (Staph. epi [4]; strain 219): 2 µg/mL (≈ 4.33 µM)
MIC (Staph. epi [4]; strain 269): 4 µg/mL (≈ 8.67 µM)
MIC (Staph. epi [4]; strain 270): 8 µg/mL (≈ 17.3 µM)
MIC (Staph. epi [4]; strain 285): 4 µg/mL (≈ 8.67 µM)
MIC (Staph. epi [4]; strain 286): 1 µg/mL (≈ 2.17 µM)
MIC (Staph. epi [4]; strain EPI1): 16 µg/mL (≈ 34.7 µM)

CC1=C(C(=O)O)N2C(=O)C(NC(=O)[C@H](N)c3csc4cccc(F)c34)C2SC1 (stereo partly drawn) [Ex. 19, D-7-(4-Fluoro-3-benzothienyl)glycylamido-3-methyl-3-cephem-4-carboxylic acid]
MIC (Strep. D; strain 2041): 128 µg/mL (≈ 304 µM)
MIC (Strep. D; strain X66): 128 µg/mL (≈ 304 µM)
MIC (H. influ.; strain 76): 4 µg/mL (≈ 9.49 µM)
MIC (H. influ.; strain C.L.): 16 µg/mL (≈ 38 µM)
MIC (Strep. A): 1 µg/mL (≈ 2.37 µM)
MIC (E. coli; strain EC14): 128 µg/mL (≈ 304 µM)
MIC (E. coli; strain N10): 128 µg/mL (≈ 304 µM)
MIC (E. coli; strain TEM): 128 µg/mL (≈ 304 µM)
MIC (Bacteroides corrodens): 32 µg/mL (≈ 75.9 µM)
MIC (Bacteroides fragilis; [6]): 8 µg/mL (≈ 19 µM)
MIC (Bacteroides fragilis; [7]): 32 µg/mL (≈ 75.9 µM)
MIC (Bacteroides fragilis; [8]): 16 µg/mL (≈ 38 µM)
MIC (Bacteroides fragilis; [9]): 8 µg/mL (≈ 19 µM)
MIC (Bacteroides fragilis; [10]): 8 µg/mL (≈ 19 µM)
MIC (Bacteroides fragilis; [11]): 16 µg/mL (≈ 38 µM)
MIC (Bacteroides fragilis; [12]): 8 µg/mL (≈ 19 µM)
MIC (Bacteroides fragilis; [13]): 64 µg/mL (≈ 152 µM)
MIC (Bacteroides fragilis; [14]): 8 µg/mL (≈ 19 µM)
MIC [5, 15]: 16 µg/mL (≈ 38 µM)
MIC [5, 16]: 32 µg/mL (≈ 75.9 µM)
MIC (Klebsiella; strain KAE): 128 µg/mL (≈ 304 µM)
MIC (Klebsiella; strain X26): 16 µg/mL (≈ 38 µM)
MIC (Klebsiella; strain X68): 128 µg/mL (≈ 304 µM)
MIC (Strep. PN): 4 µg/mL (≈ 9.49 µM)
MIC (H. influenzae; strain 76): 4 µg/mL (≈ 9.49 µM)
MIC (H. influenzae; strain 105): 4 µg/mL (≈ 9.49 µM)
MIC (H. influenzae; strain 158): 4 µg/mL (≈ 9.49 µM)
MIC (H. influenzae; strain 164): 4 µg/mL (≈ 9.49 µM)
MIC (H. influenzae; strain 169): 4 µg/mL (≈ 9.49 µM)
MIC (H. influenzae; strain 171): 4 µg/mL (≈ 9.49 µM)
MIC (H. influenzae; strain 312): 8 µg/mL (≈ 19 µM)
MIC (H. influenzae; strain 1683): 2 µg/mL (≈ 4.75 µM)
MIC (H. influenzae; strain 1930): 16 µg/mL (≈ 38 µM)
MIC (H. influenzae; strain 4842): 8 µg/mL (≈ 19 µM)
MIC (H. influenzae; strain C.L.): 16 µg/mL (≈ 38 µM)
MIC (H. influenzae; strain HESS): 16 µg/mL (≈ 38 µM)
MIC (H. influenzae; strain M366): 64 µg/mL (≈ 152 µM)
MIC (H. influenzae; strain M370): 4 µg/mL (≈ 9.49 µM)
MIC (H. influenzae; strain M371): 4 µg/mL (≈ 9.49 µM)
MIC (H. influenzae; strain R465): 64 µg/mL (≈ 152 µM)
MIC (H. influenzae; strain STEL): 64 µg/mL (≈ 152 µM)
MIC (Staph. aureus [3]; strain S224): 4 µg/mL (≈ 9.49 µM)
MIC (Staph. aureus [3]; strain S225): 4 µg/mL (≈ 9.49 µM)
MIC (Staph. aureus [3]; strain S226): 4 µg/mL (≈ 9.49 µM)
MIC (Staph. aureus [3]; strain S227): 4 µg/mL (≈ 9.49 µM)
MIC (Staph. aureus [3]; strain S228): 4 µg/mL (≈ 9.49 µM)
MIC (Staph. aureus [3]; strain S229): 8 µg/mL (≈ 19 µM)
MIC (Staph. aureus [3]; strain S230): 4 µg/mL (≈ 9.49 µM)
MIC (Staph. aureus [3]; strain S231): 2 µg/mL (≈ 4.75 µM)
MIC (Staph. aureus [3]; strain S234): 4 µg/mL (≈ 9.49 µM)
MIC (Staph. aureus [3]; strain S237): 4 µg/mL (≈ 9.49 µM)
MIC (Staph. aureus [3]; strain S238): 8 µg/mL (≈ 19 µM)
MIC (Staph. aureus [3]; strain S239): 8 µg/mL (≈ 19 µM)

CO[C@@]1(NC(=O)C(C(=O)O)c2ccc(O)cc2)C(=O)N2C(C(=O)O)=C(CSc3nnnn3C)CO[C@@H]21 (stereo partly drawn) [moxalactam, reference compound]
MIC (Bacteroides corrodens): 8 µg/mL (≈ 15.4 µM)
MIC (Bacteroides fragilis; [6]): 0.5 µg/mL (≈ 0.961 µM)
MIC (Bacteroides fragilis; [7]): 4 µg/mL (≈ 7.69 µM)
MIC (Bacteroides fragilis; [8]): 0.5 µg/mL (≈ 0.961 µM)
MIC (Bacteroides fragilis; [9]): 1 µg/mL (≈ 1.92 µM)
MIC (Bacteroides fragilis; [10]): 1 µg/mL (≈ 1.92 µM)
MIC (Bacteroides fragilis; [11]): 0.5 µg/mL (≈ 0.961 µM)
MIC (Bacteroides fragilis; [12]): 0.5 µg/mL (≈ 0.961 µM)
MIC (Bacteroides fragilis; [13]): 8 µg/mL (≈ 15.4 µM)
MIC (Bacteroides fragilis; [14]): 2 µg/mL (≈ 3.84 µM)
MIC [5, 15]: 2 µg/mL (≈ 3.84 µM)
MIC [5, 16]: 64 µg/mL (≈ 123 µM)
